Data taken from patent US10351530B2, “Arylcyclohexyl pyrazoles as NRF2 regulators” (GlaxoSmithKline Intellectual Property Development Limited, priority 2015, dated 2019).
pEC50, pIC50: −log10 of the molar value.

Assays:
[1] = target: T1, NRF2/Keap1 (Homo sapiens, UniProt Q14145); assay: NRF2-Keap1 TR-FRET Assay (full length NRF2 and full length Keap1); assay type: binding; settings: 25 nM Keap1-FlagHis, 50 nM biotin-NRF2 added
T1 construct: full length NRF2 protein and full length Keap1 protein (Keap1 exists a dimer) are used
T1 sequence (Q14145 whole entry): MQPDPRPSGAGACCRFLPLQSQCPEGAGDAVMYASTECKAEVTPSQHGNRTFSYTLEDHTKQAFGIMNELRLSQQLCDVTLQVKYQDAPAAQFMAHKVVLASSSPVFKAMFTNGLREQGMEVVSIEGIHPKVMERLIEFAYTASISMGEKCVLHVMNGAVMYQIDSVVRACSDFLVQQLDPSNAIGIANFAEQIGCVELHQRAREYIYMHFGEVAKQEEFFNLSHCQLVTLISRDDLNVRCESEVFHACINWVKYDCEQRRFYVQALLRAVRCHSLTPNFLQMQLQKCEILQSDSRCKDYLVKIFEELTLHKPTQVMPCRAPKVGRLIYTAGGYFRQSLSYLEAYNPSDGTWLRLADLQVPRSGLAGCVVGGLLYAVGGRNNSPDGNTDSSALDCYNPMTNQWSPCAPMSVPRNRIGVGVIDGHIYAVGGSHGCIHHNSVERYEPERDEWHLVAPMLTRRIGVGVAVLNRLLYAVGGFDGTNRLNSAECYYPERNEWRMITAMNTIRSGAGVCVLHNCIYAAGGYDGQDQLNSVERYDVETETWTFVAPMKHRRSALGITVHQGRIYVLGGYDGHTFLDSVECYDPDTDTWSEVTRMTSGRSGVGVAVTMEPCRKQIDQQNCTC
Description: In the NRF2-Keap1 TR-FRET (time-resolved fluorescence resonance energy transfer) assay, full length NRF2 protein and full length Keap1 protein (Keap1 exists a dimer) are used. The assay detects the ability of compound to displace the binding of FlagHis-tagged Keap1 with biotinylated, Avi-tagged NRF2 protein. Biotin-NRF2 binds to streptavidin-europium (a component of the detection mix) and Keap1-FlagHis is recognized by anti-Flag APC (allophycocyanin) antibody (also a component of the detection mix). If binding occurs between the two proteins, there will be an energy transfer from the Eu+3 (donor) at 615 nm to the APC (acceptor) at 665 nm. A potential Keap1 inhibitor will cause a reduction in the TR-FRET signal by interfering with the binding of Keap1 to NRF2.
One hundred nanoliters of 100× compound dose response curves (serial 3-fold dilutions) in DMSO are stamped using an Echo liquid handling system (Labcyte) into 384-well, low volume, black assay plates (Greiner, #784076), with DMSO in columns 6 and 18. The top concentration of compound is located in columns 1 and 13. All reagents are diluted in assay buffer (50 mM Tris, pH 8.0, 5 mM MgCl2, 100 mM NaCl, 0.005% BSA, 1 mM DTT, and 2 mM CHAPS). The BSA, DTT, and CHAPS are added to the assay buffer on the day of assay. Using a Multidrop Combi (Thermo Electron Corporation) equipped with a metal tip dispenser, 5 ul of 25 nM Keap1-FlagHis protein is added to all wells of the compound plate, with the exception of the wells in column 18. Wells in column 18 receive 5 ul of assay buffer instead. Plates are centrifuged at 500 rpm for 1 minute, covered with a plate lid, and incubated at 37° C. for 2.25 hours. Plates are then removed from the incubator and allowed to cool to RT for 15 minutes. Five microliters of 50 nM biotin-NRF2 protein is then added to all wells of the plates and the plates are spun at 500 rpm for 1 minute, followed by incubating at 4° C. for 1.25 hours. The plates are then allowed to warm to RT for 15 minutes, followed by the addition of 10 ul of detection mix (1 nM Streptavidin Eu+ W1024 and 5 ug/ml mouse anti-DYKDDDDK IgG conjugated to SureLight APC antibody; both from Columbia Biosciences) to all wells. Plates are spun at 500 rpm for 1 minute, incubated for 1 hour at RT, and read on an Envision plate reader using a 320 nm excitation filter and 615 nm and 665 nm emission filters. Compound response (% inhibition) and potency (pIC50) are calculated based on the ratio of the two emissions (665 nm/615 nm) and then the transformed data is normalized against controls in the assay (control 1=1% DMSO in the presence of NRF2 and Keap1 protein and control 2=1% DMSO in the absence of protein). Data analysis is handled using the software package Abase XE (Surrey, United Kingdom). The % inhibition values are calculated from the ratio (transformed) data by the equation: 100−(100*(compound response-average control 2)/(average control 1−average control 2)).
For calculation of pIC50s, Abase XE uses a four parameter equation.

[2] = system: NQO1 specific enzyme activity in BEAS-2B cells; assay: BEAS-2B NQO1 MTT Assay; assay type: cell-based; settings: NQO1 specific activity induction
Description: NAD(P)H:quinone oxidoreductase 1 (NQO1), also called DT diaphorase, is a homodimeric FAD-containing enzyme that catalyzes obligatory NAD(P)H-dependent two-electron reductions of quinones and protects cells against the toxic and neoplastic effects of free radicals and reactive oxygen species arising from one-electron reductions. The transcription of NQO1 is finely regulated by NRF2, and thus NQO1 activity is a good marker for NRF2 activation. On day one, frozen BEAS-2B cells (ATCC) are thawed in a water bath, counted, and re-suspended at a concentration of 250,000 cells/mL. Fifty microliters of cells are plated in 384 well black clear-bottomed plates. Plates are incubated at 37° C., 5% CO2 overnight. On day two, plates are centrifuged and 50 nL of compound or controls are added to the cells. Plates are then incubated at 37° C., 5% CO2 for 48 hours. On day four, medium is aspirated from the plate and crude cell lysates are made by adding 13 uL of 1× Cell Signaling Technologies lysis buffer with 1 Complete, Mini, EDTA-free Protease Inhibitor Tablet (Roche) for each 10 mL of lysis buffer. After lysis plates are incubated for 20 minutes at room temperature. Two microliters of lysate are removed for use in Cell Titer Glo assay (Promega) and MTT cocktail is prepared (Prochaska et. al. 1998) for measurement of NQO1 activity. Fifty microliters of MTT cocktail is added to each well, plate is centrifuged, and analyzed on an Envision plate reader (Perkin Elmer) using Absorbance 570 nm label for 30 minutes. Product formation is measured kinetically and the pEC50 of NQO1 specific activity induction is calculated by plotting the change in absorbance (Delta OD/min) versus the log of compound concentration followed by 3-parameter fitting.

[3] = target: T2, Keap1/NRF2 (Homo sapiens, UniProt Q14145); assay: NRF2-Keap1 FP Assay (Kelch domain (321-609) of Keap1, TAMRA-labeled NRF2 ETGE peptide); assay type: binding; settings: Keap1 (321-609) 20 nM, Tamra labeled peptide 8 nM
T2 construct: Keap1 (321-609) is diluted to 40 nM (2×) in 1× assay buffer
T2 sequence (Q14145 321-609): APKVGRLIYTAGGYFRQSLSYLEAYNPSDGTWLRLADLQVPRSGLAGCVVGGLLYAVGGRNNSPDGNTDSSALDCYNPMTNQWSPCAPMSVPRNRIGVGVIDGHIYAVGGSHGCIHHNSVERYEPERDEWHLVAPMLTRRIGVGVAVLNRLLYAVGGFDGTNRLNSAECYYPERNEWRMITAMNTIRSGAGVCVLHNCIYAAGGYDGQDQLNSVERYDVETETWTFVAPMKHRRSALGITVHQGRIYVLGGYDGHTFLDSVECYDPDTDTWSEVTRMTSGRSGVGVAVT
Description: One model for the NRF2-Keap1 interaction is through two binding sites in the Neh2 domain on NRF2. The two sites are referred to as the DLG binding motif (latch domain, uM affinity) and the ETGE binding motif (hinge domain, nM affinity). The Keap1 protein consists of an N-terminal region (NTR), a broad complex, tramtrack, and brick a′ brac domain (BTB), an intervening region (IVR), a double glycine repeat domain (DGR or Kelch), and a C-terminal region. The DLG and ETGE motifs of NRF2's Neh2 domain bind to the Kelch domain of Keap1 at different affinities. In the Keap1 Kelch fluorescence polarization (FP) assay, a TAMRA-labeled 16 mer peptide (AFFAQLQLDEETGEFL) containing the ETGE motif of NRF2 and the Kelch domain (321-609) of Keap1 is used. The assay determines if a compound interferes with the binding between Keap1 […] and the TAMRA-labeled peptide. Binding of TAMRA-labeled NRF2 peptide to Keap1 (321-609) results in a high FP signal. If a compound interferes with the binding between the peptide and the protein, it will cause the assay signal to decrease. Thus, assay signal is inversely proportional to binding inhibition.
100 nl of 100× compound dose response curves (serial 3-fold dilutions) in DMSO are stamped using an Echo liquid handling system (Labcyte) into 384-well low volume black assay plates (Greiner, #784076), with DMSO in columns 6 and 18. The top concentration of compound is located in columns 1 and 13. Keap1 (321-609) is diluted to 40 nM (2×) in 1× assay buffer (50 mM Tris, pH 8.0, 100 mM NaCl, 5 mM MgCl2, 1 mM DTT, 2 mM CHAPS, and 0.005% BSA) and 5 ul is added using a Multidrop Combi (Thermo Electron Corporation) equipped with a metal tip dispenser to all wells of the compound plate, except column 18. Column 18 receives only 5 ul of assay buffer. Immediately, 5 uL of 16 nM (2×) of Tamra labeled peptide (AFFAQLQLDEETGEFL, 21st Century Biochemicals) is added to all wells of the plate. The plates are spun at 500 rpm for 1 min, incubated for 1 hr at room temperature, and read on an Analyst GT (Molecular Devices) equipped with excitation (530/25 nm) and emission (580/10 nm) filters designed for Tamra probes. A 561 nm dichroic mirror is also used in the Analyst. The final assay concentrations of Keap1 (321-609) and Tamra labeled peptide are 20 nM and 8 nM, respectively. Fluorescence measurements, represented as mP, are used in the transformation of the data. Compound activity is calculated based on percent inhibition, normalized against controls in the assay (Control 1 contains the Tamra peptide and Keap1 (321-609) together (0% response) and control 2 contains the Tamra peptide alone (100% response)). Data analysis is handled using the software package Abase XE (Surrey, United Kingdom. The % inhibition values are calculated by the equation: 100−(100*((compound response-average control 2)/(average control 1−average control 2))). For calculation of pIC50s, Abase XE uses a four parameter equation.

pIC50 [1]	pIC50 [3]	Compound	pEC50 ([2]; Homo sapiens, BEAS-2B, 48 h)	pEC50 ([2]; 48 hours)
5.00 to 6.00	6.00 to 7.00	CC1(C)CCc2cnn([C@H]3CCC[C@@H](c4cccc(-n5ncc(C(=O)O)c5C5CC5)c4)C3)c21 (racemic) [Example 24, 5-Cyclopropyl-1-(3-(-3-(6,6-dimethyl-5,6-dihydrocyclopenta[c]pyrazol-1(4H)-yl)cyclohexyl)phenyl)-1H-pyrazole-4-carboxylic Acid]	5.00 to 6.00	
5.00 to 6.00	6.00 to 7.00	CC1CCN(C(=O)C2CCCC(c3cccc(-n4ncc(C(=O)O)c4C4CC4)c3)C2)C1 (racemic) [Example 25, 5-Cyclopropyl-1-{3-[3-(3-methyl-pyrrolidine-1-carbonyl)-cyclohexyl]-phenyl}-1H-pyrazole-4-carboxylic Acid]	5.00 to 6.00	
5.00 to 6.00	5.00 to 6.00	CCOC[C@@H]1CCCN1C(=O)C1CCCC(c2cccc(-n3ncc(C(=O)O)c3C3CC3)c2)C1 (single isomer, unassigned) [Example 18h]		5.00 to 6.00
5.00 to 6.00	6.00 to 7.00	CCCCC1CCc2cnn([C@@H]3CCC[C@@H](c4cccc(-n5ncc(C(=O)O)c5C5CC5)c4)C3)c21 (stereo in doubt) [Example 37, 1-(3-((1,3-cis)-3-(6-Butyl-5,6-dihydrocyclopenta[c]pyrazol-1(4H)-yl)cyclohexyl)phenyl)-5-cyclopropyl-1H-pyrazole-4-carboxylic Acid]		5.00 to 6.00
5.00 to 6.00	6.00 to 7.00	O=C(O)c1cnn(-c2cccc(C3CCC(n4ncc5c4CCCC5=O)C3)c2)c1C1CC1 (stereo not drawn) [Example 15, 5-Cyclopropyl-1-{3-[3-(4-oxo-4,5,6,7-tetrahydro-indazol-1-yl)-cyclopentyl]-phenyl}-1H-pyrazole-4-carboxylic Acid]	5.00 to 6.00	
5.00 to 6.00	6.00 to 7.00	O=C(O)c1cnn(-c2cccc(C3CCCC(C(=O)N4CCCCCC4)C3)c2)c1C1CC1 (stereo not drawn) [Example 20, 1-(3-(3-(Azepane-1-carbonyl)cyclohexyl)phenyl)-5-cyclopropyl-1H-pyrazole-4-carboxylic Acid]	5.00 to 6.00	
5.00 to 6.00	6.00 to 7.00	CN(C(=O)C1CCCC(c2cccc(-n3ncc(C(=O)O)c3C3CC3)c2)C1)C1CCCCC1 (stereo not drawn) [Example 21, 1-(3-(3-(Cyclohexyl(methyl)carbamoyl)cyclohexyl)phenyl)-5-cyclopropyl-1H-pyrazole-4-carboxylic Acid]	5.00 to 6.00	
5.00 to 6.00	6.00 to 7.00	CCCC1CCCCC1N(C)C(=O)C1CCCC(c2cccc(-n3ncc(C(=O)O)c3C3CC3)c2)C1 (stereo not drawn) [Example 22, 5-Cyclopropyl-1-(3-(3-(methyl(2-propylcyclohexyl)carbamoyl)cyclohexyl)phenyl)-1H-pyrazole-4-carboxylic Acid]	5.00 to 6.00	
